Assay results: patent publication US9212210B2, “Akt activity specifically inhibiting polypeptide” (Japan Science and Technology Agency, priority 2003, dated 2015)

Tests used:
[1] = test system: human T cell leukemia cells (T4); assay: Apoptosis of T4 cells by propidium iodide staining and FACS; type: cell-based
Description: The effect on apoptosis of 10/24 peptide was examined with the use of human T cell leukemia cells (T4).
10/24 peptide (NH2-AVTDHPDRLWAWEKF-COOH) (SEQ ID NO: 1) was pre-treated at 0-30 μM concentrations with the use of T4 cell lines without stimulation, 48 hours later stained with propidium iodide, and the apoptosis was determined by FACS (Beckton Dickinson). Further, to identify the AKT dependency of the anti-tumor effect, myr-AKT (constitutively activated AKT) was overexpressed.

[2] = test system: T4 cell lines; assay: Cell growth test by MTT (WST-8 reagent) assay; type: cell-based, human; conditions: T4 cell lines without stimulation, 0-50 μM, 48 hours, WST-8, absorbance at 450 nm
Description: Cell growth test was performed by using MTT assay. That is, in experiments of cell growth by using WST-8 reagent [2-(2-methoxy-4-nitrophenyl)-3-(4-nitrophenyl)-5-(2,4-disulfophenyl)-2H-tetrazolium, monosodium salt]
In this method, 10/24 peptide was pre-treated at 0-50 μM concentration in cell growth test by using T4 cell lines without stimulation, 48 hours later the growth potency was measured by using WST-8 reagent assay, the absorbance at 450 nm was measured by ELISA using a microplate reader (Model 550; BioRad, Tokyo, Japan).

[3] = molecular target: T1, Akt2 (Homo sapiens, UniProt P31751); assay: Co-immunoprecipitation binding test with Akt subtype Akt2; set-up: expressed in transfected cells; host or cells: 293 cells (ATCC), calcium phosphate transfection, pCMV6 vector; conditions: 293 cell lysate, peptide at 400 μM, anti Flag M2 immunoprecipitation, western blotting
T1 sequence (P31751 whole entry): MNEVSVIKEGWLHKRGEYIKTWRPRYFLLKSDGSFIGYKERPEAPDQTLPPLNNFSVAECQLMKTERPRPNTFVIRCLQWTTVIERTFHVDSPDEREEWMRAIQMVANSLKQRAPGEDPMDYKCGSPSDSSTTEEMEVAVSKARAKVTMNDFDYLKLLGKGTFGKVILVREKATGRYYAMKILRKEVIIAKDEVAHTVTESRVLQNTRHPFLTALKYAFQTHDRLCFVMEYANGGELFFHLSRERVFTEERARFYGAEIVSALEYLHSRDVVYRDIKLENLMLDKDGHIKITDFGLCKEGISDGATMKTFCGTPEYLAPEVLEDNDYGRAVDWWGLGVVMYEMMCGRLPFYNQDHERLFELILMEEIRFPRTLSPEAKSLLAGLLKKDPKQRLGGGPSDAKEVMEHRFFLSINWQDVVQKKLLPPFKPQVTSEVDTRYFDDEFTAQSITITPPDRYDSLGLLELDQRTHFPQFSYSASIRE
Description: (§1) Binding test between 10/24 peptide and Akt subtype molecule: Akt1, Akt2, or Akt3, was performed by using co-immunoprecipitation assay.
(§2) The cell lysate overexpressed Akt kinase in 293 cells (ATCC) i.e., Akt1, Akt2 or Akt3 in pCMV6 was expressed in 293 cells (ATCC) by using calcium phosphate method, and the overexpressed cells were harvested, lysed, and pre-treated with Protein G/A agarose mixture (50% v/v, ProG/A, Pharmacia). Akt or a control peptide (βC) was added to the cell lysate at 400 μM, inoculated with ProG/A for 3 hours at 4° C., and was added anti Flag M2 antibody (Sigma). The resultant immune precipitant was washed, and then were identified the binding to Akt kinase by western blotting (anti-HA antibody, 3F10, Boehringer Mannheim). As shown in the figure, the 10/24 peptide bound to any of the three subtypes of molecules, Akt1, Akt2, and Akt3.

[4] = test system: Akt in mouse QrSP-11 fibrosarcoma cells; assay: Inhibition of Akt phosphorylation activation in PDGF-stimulated QrSP-11 cells (western blotting); type: cell-based; conditions: 50 mM peptide for 16 hours, PDGF stimulation
Description: Inhibition effect on Akt activation of AKT phosphorylation (serine 473 residue, threonine 308 residue) of 10/24 peptide and control peptide in mouse QrSP-11 fibrosarcoma cells were examined.
QrSP-11 cells were mixed with 50 mM concentrations of peptide for 16 hours. Then the mixture was stimulated with PDGF (PDGF-AB, Sigma, 3226). The cells were lysed in the presence of phosphatase inhibitor, analyzed on SDS gels, and western blotting was performed by ECL (Amersham) with the use of various antibodies (Cell Signaling; anti-Akt #9272, anti-pThr 308 #9275L, and anti-pSer 473 #9271L). As shown in the figure, in the 10/24 peptide treated cells, phosphorylations of both serine 473 and threonine 308 were inhibited as shown at the right in the figure. That is, phosphorylation inhibition caused by 10/24 peptide was indicated by diluting the black bands at the right compared to the second and forth rows from the left in the figure.

[5] = molecular target: T2, AKT kinase (unactivated) (Homo sapiens, UniProt P31749); assay: Lipid-protein pull down assay with PIP Beads (PI (3,4,5) P3); type: binding; conditions: for binding of PIP Beads (PI (3,4,5) P3) to AKT: 1-400 μM peptide, 50 ng AKT kinase, 2 hours at 4° C., western blotting
T2 construct: purchased Upstate Biotechnology #14-279
T2 sequence (P31749 whole entry): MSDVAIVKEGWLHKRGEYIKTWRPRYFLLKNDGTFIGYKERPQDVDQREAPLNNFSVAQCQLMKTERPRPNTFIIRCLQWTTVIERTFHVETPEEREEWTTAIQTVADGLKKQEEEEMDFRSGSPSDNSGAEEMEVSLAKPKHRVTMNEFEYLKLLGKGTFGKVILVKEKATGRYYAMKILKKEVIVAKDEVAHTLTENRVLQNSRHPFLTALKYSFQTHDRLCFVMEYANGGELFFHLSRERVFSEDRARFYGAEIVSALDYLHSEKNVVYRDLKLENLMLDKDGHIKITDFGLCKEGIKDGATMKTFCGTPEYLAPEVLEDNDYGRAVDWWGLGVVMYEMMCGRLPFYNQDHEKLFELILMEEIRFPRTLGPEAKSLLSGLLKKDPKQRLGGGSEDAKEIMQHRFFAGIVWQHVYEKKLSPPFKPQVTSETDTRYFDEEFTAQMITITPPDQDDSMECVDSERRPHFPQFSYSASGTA
Description: Lipid-protein pull down assay was performed for 10/24 peptide of TCL1.
Lipid-protein pull down assay was performed by using PIP Beads (PI (3,4,5) P3 Echelon Bioscience Incorporated). 10/24 NH2-AVTDHPDRLWAWEKF-COOH (SEQ ID NO: 1), and βC NH2-EKQHAWLPLTIE-COOH (SEQ ID NO: 22) as a control, were used. After treatment for 2 hours at 4° C. by using 50 ng of AKT kinase (unactivated, Upstate Biotechnology, #14-279), 25 μl of PIP Beads (PI (3,4,5) P3 Echelon Bioscience Incorporated) was added, then washed with fluid containing (10 mM Hepes, pH7.4, 0.25% NP-40, 140 mM NaCl), and western blotting was performed by using Akt antibody (Cell Signaling) (FIG. 8). […] Thus, this is considered to be the inhibition mechanism for Akt activation.

[6] = test system: Mouse QrSP-11 fibrosarcoma cells transplanted to C57BL/6 mouse; assay: In vivo anti-tumor effect on transplanted tumor cells; conditions: injected directly into tumor, 2 μM 3 times a week per mouse, versus control peptide
Description: In vivo anti-tumor effect by 10/24 peptide with the use of the transplanted tumor cells was examined.
Mouse QrSP-11 fibrosarcoma cells was transplanted to abdominal wall of C57BL/6 mouse, and examined the inhibition ? effect on tumor growth by peptide. 10/24 peptide or control peptide was injected directly into tumor cells (2 μM was administered 3 times a week for each mouse, shown by arrows in the figure), the tumor diameters were measured and the volumes were calculated.

[7] = test system: Akt1; assay: Co-immunoprecipitation binding test with Akt subtype Akt1; conditions: 293 cell lysate, peptide at 400 μM, anti Flag M2 immunoprecipitation, western blotting
Description: as §1, §2

[8] = test system: Recombinant Akt protein; assay: In vitro Akt kinase assay with GSK as substrate; type: biochemical; conditions: 200 μM peptide, reacted 2 hours, phosphorylation 4 minutes at 30° C., western blotting
Description: With the use of the GSK as substrate Akt kinase assay was performed, and inhibition test for Akt activation with 10/24 peptide was performed.
In vitro Akt kinase assay was performed by using kit (Cell Signaling, #9840). Recombinant Akt protein extracted from mammalian cells was mixed with 200 μM concentrations of peptide, and reacted for 2 hours. Phosphorylation was performed for 4 minutes at 30° C. After analyzing the reaction mixture on SDS gels, GSK phosphorylation was determined by western blotting.

[9] = molecular target: T3, Akt3 (Homo sapiens, UniProt Q9Y243); assay: Co-immunoprecipitation binding test with Akt subtype Akt3; conditions: 293 cell lysate, peptide at 400 μM, anti Flag M2 immunoprecipitation, western blotting
T3 construct: expressed in transfected cells; host or cells: 293 cells (ATCC), calcium phosphate transfection, pCMV6 vector
T3 sequence (Q9Y243 whole entry, species assumed): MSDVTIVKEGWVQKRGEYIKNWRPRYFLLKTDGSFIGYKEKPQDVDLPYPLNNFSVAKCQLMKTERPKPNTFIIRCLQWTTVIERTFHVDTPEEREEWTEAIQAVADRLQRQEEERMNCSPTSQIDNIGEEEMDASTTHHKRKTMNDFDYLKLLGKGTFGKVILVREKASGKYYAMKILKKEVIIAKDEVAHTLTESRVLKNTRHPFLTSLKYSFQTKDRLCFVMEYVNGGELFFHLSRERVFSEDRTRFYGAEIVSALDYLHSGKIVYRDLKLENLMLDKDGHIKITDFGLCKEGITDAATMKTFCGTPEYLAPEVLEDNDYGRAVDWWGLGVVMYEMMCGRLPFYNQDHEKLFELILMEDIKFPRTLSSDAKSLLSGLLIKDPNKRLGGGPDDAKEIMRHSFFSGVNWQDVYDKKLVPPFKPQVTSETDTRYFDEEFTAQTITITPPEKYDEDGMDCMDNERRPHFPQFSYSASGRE
Description: as §1, §2

[10] = test system: AKT overexpressed in 293 cells; assay: Inhibition of activation and membrane translocation of AKT in 293 cells (confocal microscope); type: cell-based, human; conditions: PDGF-AB 10 minutes, compared with control peptides
Description: Inhibition effect for the activation and membrane translocation of AKT of 10/24 peptide were tested with the use of 293 cells (ATCC).
[…] of AKT was overexpressed in 293 cells (ATCC) with the use of FuGENE6 (Roche Diagnostics). Sixteen hours later the serum was eliminated, and the cells were stimulated with PDGF-AB (Sigma, #3226) for 10 minutes. The cells were fixed with 4% paraformaldehyde, stained with FITC-conjugated anti-HA antibody (12CA5, MBL) or phospho-Ser 473 antibody (587-F11, Cell Signaling), and observed under the confocal microscope (Nikon).
As shown in the FIG. 10, in the 10/24 treated cells (g-i), the inhibition of the membrane translocation and activation of AKT was identified compared with the control peptides (a-f) (around the cells glowed green or yellow as shown in d or f, while this effect was inhibited in the 10/24 peptide as shown in […] or i. See the figure). That is, from the results of the experiment, it was identified that the 10/24 peptide inhibits the activation at the same time as the translocating of AKT to the membrane in cells. AKT essentially translocates to the cell surface where it is activated, but in the 10/24 peptide treated cells, it was identified that the translocation to membrane and activation of AKT was inhibited.

[11] = test system: Mouse QrSP-11 fibrosarcoma tumors of example 8; assay: Histological examination of peptide treated mouse tumor; type: in vivo
Text: Experimental mouse tumors of example 8 were harvested on the day 9, and histologically examined by macroscopic appearance, hematoxylin-eosin (H&E) staining (an observing method for conditions of cell nucleus and the like), TUNEL (Tdt-mediated dUTP nick end labeling, #MK500, Takara) immunostaining (a histologically identifying method for the way of the atypical death of carcinoma i.e., apoptosis), and phospho Akt (Ser 473) monoclonal antibody (a method for determining 587F11, Cell Signaling, phosphorylation of AKT kinase, and observing the activation).

[12] = test system: Akt kinase; assay: Binding test by co-immunoprecipitation assay; conditions: lysate of human 293 cells overexpressing AKT kinase, incubated around 2 hours, western blotting
Description: In this method, AKT kinase was overexpressed in human 293 cells, and the harvested cell lysates was incubated with 10/24 peptide (NH2-AVTDHPDRLWAWEKF-COOH) (SEQ ID NO: 1) for around 2 hours. Further, the treated cell lysates were added agarose beads bound to the specific antibody against an epitope that was fused with Akt, and co-incubated for 2-3 hours. Then, molecules adhered in the cell lysates were immunoprecipitated with agarose beads bound to this antibody, and examined the binding to Akt kinase by using western blotting with specific antibody.

[13] = molecular target: T1, Akt2; assay: Yeast two-hybrid screening, β-Gal lifting assay and quantitative liquid β-Gal assay; type: cell-based; set-up: expressed in transfected cells; host or cells: yeast Y190 cells (Clontech), lithium acetate method; key to β-Gal lifting assay category of interaction with Akt2: 3 h-positive [++]; 8 h-positive [+]; 24 h-negative [−]; conditions: yeast Y190 cells; for binding to Akt in β-Gal lifting assay and quantitative liquid β-Gal assay: site-directed TCL1 mutants
Description: Y190 cells (Clontech), by using lithium acetate method; and human Akt2 (Akt2/PAS2-1) and TCL1 random library, in accordance with the previous report (Mol. Cell 6:395-407; Proc. Natl. Acad. Sci. USA 94:11534-11539); were expressed in yeast. In the presence of 3-amino-1,2,4-triazole (SIGMA), around […] clones from cDNA library were screened. β-galactosidase (β-Gal) activity in His+ colony was measured by using filter-lift assay. Yeast clones were classified into clone categories: 3 h-positive [++], 8 h-positive [+], and 24 h-negative [−] by the intensity of β-Gal. Ten clones were selected from the each category for sequencing of the nucleotide.
Y190 cells (Clontech) were expressed in yeast together with TCL1 of wild-type, D16G, K30M, Q46R, 174V, or M106V by using Akt2/PAS2-1, with the use of pGAD424 (Clontech) vector. TCL1 mutant was produced by using PCR-based site-directed mutagenesis and/or Quikchange kit (Stratagene). Liquid β-Gal assay was performed for quantitative determination of binding intensity by using ONPG (O-nitrophenyl-β-D-galactoppyranoside; Sigma) (Mol. Cell 6:395-407). The indicated values were determined by western blotting analysis (GAL4 activation domain antibody [Ab]: Clontech), and normalized by expressing transformant in each yeast.
Next, a yeast two-hybrid screening was performed to examine the interaction of each clone with Akt2. Yeast clones were classified into three categories based on the blue-color intensity expressed in β-Gal lifting assay (β-Gal positive [++] at 3 h, β-Gal positive [+] at 8 h, and negative [−]). Nucleotide sequences of the 10 clones in each category were determined.

[14] = molecular target: Akt kinase (Homo sapiens, UniProt P31749); assay: In vitro kinase assay of TCL1-induced Akt activation; type: biochemical; conditions: for Akt kinase activity: dose escalation
Chain of Akt kinase (Homo sapiens, UniProt P31749) (P31749 whole entry): as the sequence (P31749 whole entry) above
Description: This was predominantly correlated with Akt Ser-473 phosphorylation levels. […] D16G TCL1 was evaluated by Akt kinase activity.

## NH2-AVTDHPDRLWAWEKF-COOH (H-AVTDHPDRLWAWEKF-OH; listed as Homo sapiens) [10/24 peptide, amino acid residue 10-24 of human TCL1]
[1]; T4 cell lines without stimulation, 0-30 μM, 48 hours, compared with control peptide
  apoptosis: enhance apoptosis
[1]; T4 cells, AKT dependency of the effect
  apoptosis with myr-AKT (constitutively activated AKT) overexpression: apoptosis was inhibited
[2]
  cell growth associated with AKT activation: specifically inhibits cell growth
[3]
  binding to Akt2: bound
[4]
  phosphorylation of Akt serine 473: inhibited
  phosphorylation of Akt threonine 308: inhibited
[5]
  mode of inhibition of the binding of Phosphoinositide (PI (3,4,5) P3) to Akt kinase: competitively inhibits
  binding of PIP Beads (PI (3,4,5) P3) to AKT: inhibited in a dose-dependent manner
[6]
  tumor growth (tumor volume): tumor growth was effectively inhibited
[7]
  binding to Akt1: bound
[8]
  phosphorylation potency of Akt for GSK peptide (Akt kinase activity): effectively inhibited
[9]
  binding to Akt3: bound
[10]; anti-HA staining
  membrane translocation of AKT: inhibited
[10]
  activation of AKT (phospho-Ser 473 staining): inhibited
[11]; tumors harvested on day 9
  Akt activation (phospho Akt Ser 473 staining): inhibition of Akt activation
  apoptosis by H&E staining: increased apoptosis
  cell apoptosis by TUNEL staining: increased cell apoptosis
[11]; tumors harvested on day 9, compared to the control
  tumor size by macroscopic appearance: reduction in tumor size was clearly observed
[12]
  binding to Akt kinase: specifically binds

## D16G TCL1: amino acid-substituted mutant form of TCL1 (D16G)
[13]
  binding to Akt in β-Gal lifting assay and quantitative liquid β-Gal assay: dramatic decrease
[14]
  GSK-3α phosphorylation and Akt Ser-473 phosphorylation: did not affect
  Akt kinase activity: did not affect the Akt kinase activity

## NH2-EKQHAWLPLTIE-COOH (H-EKQHAWLPLTIE-OH; listed as Homo sapiens) [βC, reference compound]
[5]
  binding of PIP Beads (PI (3,4,5) P3) to AKT: did not inhibit at all

## I74V: amino acid-substituted mutant form of TCL1 (I74V)
[13]
  binding to Akt in β-Gal lifting assay and quantitative liquid β-Gal assay: dramatic decrease

## Wild-type TCL1: human TCL1 protooncogene protein, co-activator of Akt
[13]; blue-color intensity
  β-Gal lifting assay category of interaction with Akt2: ++
[14]
  Akt kinase activity: increase in Akt kinase activity
